According to PMC6123788, “Down-regulation of cathepsin S and matrix metalloproteinase-9 via Src, a non-receptor tyrosine kinase, suppresses triple-negative breast cancer growth and metastasis” (Experimental & Molecular Medicine, 2018):

Key:
Type in all cases: biochemical
Src [1] = target: T1, Src (Homo sapiens, UniProt P12931); assay: CycLex c-Src kinase assay (IC90); supported by DARTS in MDA-MB-231 lysate
T1 construct: recombinant catalytic domain of c-Src

CTSS [2] = target: T2, CTSS (Homo sapiens, UniProt P25774); assay: fluorometric CTSS screening kit (BioVision K149), AFC substrate
CTSS [3] = target: T2, CTSS; assay: as above; remark: listed apart in the source
CTSS [4] = target: T2, CTSS; assay: fluorometric CTSS screening kit (BioVision K149), positive control
Src [5] = target: T1, Src; assay: CycLex c-Src kinase assay (IC90)

T2 sequence (P25774 115-331): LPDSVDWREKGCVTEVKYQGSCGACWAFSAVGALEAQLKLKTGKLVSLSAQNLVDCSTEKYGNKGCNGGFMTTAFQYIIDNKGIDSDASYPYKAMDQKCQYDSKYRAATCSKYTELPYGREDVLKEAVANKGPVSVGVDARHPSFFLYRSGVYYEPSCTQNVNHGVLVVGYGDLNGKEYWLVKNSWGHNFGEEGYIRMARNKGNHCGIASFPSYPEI
T1 sequence (P12931 254-536 limits assumed): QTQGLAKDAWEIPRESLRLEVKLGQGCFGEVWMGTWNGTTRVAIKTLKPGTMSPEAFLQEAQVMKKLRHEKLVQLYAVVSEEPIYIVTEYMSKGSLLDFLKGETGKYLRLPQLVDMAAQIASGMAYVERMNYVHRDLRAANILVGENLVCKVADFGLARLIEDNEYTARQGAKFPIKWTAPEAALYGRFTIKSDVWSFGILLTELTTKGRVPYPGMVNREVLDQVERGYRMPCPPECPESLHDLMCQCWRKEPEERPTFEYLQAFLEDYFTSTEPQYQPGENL

Work on `Cc1nc2c(c(C)c1O)CC(=O)N2` [BJ-2302] yielded an IC90 (Src [1]) of 3.2 µM and an IC50 (CTSS [2]) of 5.1 µM.

With `Cc1nc2[nH]c(=O)[nH]c2c(C)c1O` [BJ-2304] the “fluorometric CTSS screening kit (BioVision K149), AFC substrate” value (CTSS [3]) was “BJ-2302 exhibited the strongest suppression of CTSS activity (Fig. 3b), followed by BJ-2304”.

`CC(C)C[C@H](NC(=O)[C@H](Cc1ccccc1)NC(=O)OCc1ccccc1)C(=O)C=O` [Z-FL-COCHO] was tested, and the IC50 (CTSS [4]) was 0.00019 µM.

Molecule `COc1ccc(Cl)c(Nc2ncnc3cc(OCC4CCN(C)CC4)c(OC)cc23)c1` [AZM-475271] has an IC90 (Src [5]) of 27.3 µM.
